Experiments:
Assay in all cases: relative viability (nuclei count vs DMSO), 5 days (fraction); higher = more cells survive
[1] = compound: C[C@]12O[C@H](C[C@]1(O)CO)n1c3ccccc3c3c4c(c5c6ccccc6n2c5c31)CNC4=O [Lestaurtinib] + COc1cc2c(Oc3ccc(NC(=O)C4(C(=O)Nc5ccc(F)cc5)CC4)cc3F)ccnc2cc1OCCCN1CCOCC1 [Foretinib] (partner 0.25 µM)
Method in brief: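 A single step with final 0.05% Triton X-100, 1% formaldehyde and 1 ug/ml Hoechst fixed the cells and stained nuclei 5 days after treatment. Lung cancer cell lines in 1536-well plates had been treated by pin tool the day after seeding with one drug alone or a fixed anchor-drug dose plus five library-drug doses (not always all listed) in √10 steps, and nuclei were counted on 4× images. Relative viability is the ratio of nuclei in treated wells to nuclei in vehicle wells, taken as the median of duplicate plates.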

[2] = compound: C1/C(=C\C2=CC=CS2)/C(=O)/C(=C/C3=CC=CS3)/C1
Method in brief: (§1)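 Vehicle-anchored 1536-well plates of lung cancer cell lines, held overnight at 37 °C, were pinned with five library-drug doses (not always all listed) spaced by √10. No medium change followed over the next 5 days, after which the cells were fixed, permeabilised and Hoechst-stained together and imaged at 4×. Nuclei were counted with MetaXpress, and viability is treated-well nuclei over vehicle-well nuclei, taken as a median across plates. Plates passed with control CV below 25% and at least one doubling.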

[3] = compound: C1=CC(=CC=C1C2=CC(=C(S2)NC(=O)N)C(=O)N)F [TPCA-1]
Method in brief: as §1

[4] = compound: C[C@]12O[C@H](C[C@]1(O)CO)n1c3ccccc3c3c4c(c5c6ccccc6n2c5c31)CNC4=O [Lestaurtinib]
Method in brief: as §1

| Cell Line | relative viability ([1]; first compound 0.005 µM) | relative viability ([1]; first compound 0.01581 µM) | relative viability ([1]; first compound 0.05 µM) | relative viability ([1]; first compound 0.1581 µM) | relative viability ([1]; first compound 0.5 µM) | relative viability ([2]; 0.2 µM) | relative viability ([2]; 0.6325 µM) | relative viability ([2]; 2 µM) | relative viability ([2]; 6.325 µM) | relative viability ([2]; 20 µM) | relative viability ([3]; 0.04 µM) | relative viability ([3]; 0.1265 µM) | relative viability ([3]; 0.4 µM) | relative viability ([3]; 1.265 µM) | relative viability ([3]; 4 µM) | relative viability ([4]; 0.005 µM) | relative viability ([4]; 0.01581 µM) | relative viability ([4]; 0.05 µM) | relative viability ([4]; 0.1581 µM) | relative viability ([4]; 0.5 µM) |
| --- | --- | --- | --- | --- | --- | --- | --- | --- | --- | --- | --- | --- | --- | --- | --- | --- | --- | --- | --- | --- |
| NCI-H1666 | 1.1 | 1.07 | 1.6 | 1.02 | 0.595 | 1.02 | 1.02 | 0.922 | 0.919 | 0.955 | 1.09 | 0.972 | 0.982 | 0.973 | 0.904 | 1.11 | 1.13 | 1.31 | 0.986 | 0.894 |
| NCI-H2170 | 0.969 | 1.02 | 0.907 | 0.962 | 0.358 | 1 | 0.942 | 0.991 | 0.881 | 0.924 | 1.19 | 0.959 | 0.98 | 0.895 | 0.674 | 0.959 | 0.832 | 0.689 | 0.807 | 0.494 |
| NCI-H522 | – | – | – | – | – | 1.12 | 0.967 | 1.06 | 0.978 | 0.922 | 0.928 | 0.916 | 1.18 | 1.07 | 0.844 | 1.03 | 0.963 | 0.877 | 0.877 | 0.604 |
| LCLC-97TM1 | 0.925 | 1.08 | 0.556 | 0.462 | 0.238 | 1.07 | 0.966 | 1.2 | 0.868 | 0.852 | 1.17 | 0.886 | 0.994 | 0.613 | 0.538 | 0.702 | 1.15 | 0.739 | 0.398 | 0.267 |
| NCI-H1299 | 1.07 | 1.14 | 0.68 | 0.832 | 0.671 | 0.993 | 1.04 | 0.963 | 0.859 | 0.997 | 1.03 | 0.977 | 0.991 | 1.01 | 1.07 | 1.03 | 1.02 | 0.762 | 0.799 | 0.727 |
| NCI-H3122 | 1.06 | 0.984 | 1.01 | 1.03 | 0.793 | 1.03 | 0.986 | 1.05 | 0.892 | 0.975 | 1.04 | 0.924 | 1 | 1.01 | 0.991 | 1.06 | 1.11 | 0.981 | 1.11 | 0.615 |
| NCI-H1395 | 1.01 | 0.911 | 0.861 | 0.824 | 0.479 | 0.912 | 0.876 | 1.11 | 0.833 | 0.945 | 1.01 | 0.916 | 1.02 | 0.811 | 0.703 | 0.886 | 1.04 | 0.759 | 0.759 | 0.462 |
| NCI-H2009 | 1.24 | 1.3 | 1.17 | 1.09 | 0.751 | 1.03 | 0.98 | 0.972 | 0.936 | 0.994 | 1.12 | 1 | 1.01 | 0.859 | 0.834 | 0.999 | 1.04 | 0.82 | 0.762 | 0.366 |
| NCI-H1651 | 0.85 | 0.8 | 0.844 | 0.865 | 0.53 | 0.978 | 1.07 | 0.985 | 0.861 | 0.949 | 1.05 | 0.921 | 0.955 | 1.01 | 0.877 | 0.989 | 1.05 | 0.81 | 1.07 | 0.69 |
| HARA | 0.958 | 0.856 | 0.838 | 0.827 | 0.126 | 1.11 | 0.94 | 1.03 | 0.853 | 0.945 | 1.05 | 0.996 | 1.06 | 1.14 | 0.476 | 1.09 | 1.22 | 1.08 | 0.619 | 0.499 |
| NCI-H1944 | 0.909 | 0.848 | 0.698 | 0.652 | 0.366 | 1.04 | 0.922 | 0.977 | 0.858 | 0.917 | 1.15 | 0.88 | 1.07 | 0.998 | 0.715 | 0.888 | 0.972 | 0.968 | 0.655 | 0.396 |
| NCI-H2347 | 1.18 | 1.38 | 0.865 | 0.98 | 0.598 | 1.1 | 1.03 | 1.02 | 0.969 | 1.03 | 1.13 | 0.961 | 1.01 | 0.873 | 0.929 | 0.979 | 1.1 | 0.9 | 0.72 | 0.654 |
| 201T | 1.13 | 1.21 | 1.17 | 1.14 | 0.356 | 1.01 | 0.963 | 1.06 | 0.935 | 0.935 | 1.02 | 0.951 | 1 | 1.01 | 0.835 | 1.04 | 1.08 | 0.928 | 1.04 | 0.678 |
| PC-14 | 0.963 | 1.09 | 0.619 | 0.517 | 0.687 | 1.03 | 1.06 | 1 | 0.899 | 0.995 | 1.03 | 0.946 | 1.06 | 1.04 | 0.838 | 1.06 | 1.11 | 0.848 | 0.741 | 0.344 |
| NCI-H1792 | – | – | – | – | – | 1.03 | 1.02 | 1.09 | 0.854 | 0.955 | 1.22 | 0.894 | 0.914 | 0.568 | 0.42 | 0.744 | 1.36 | 0.504 | 0.63 | 0.433 |
| HCC-44 | – | – | – | – | – | 1.02 | 1 | 0.989 | 0.898 | 0.962 | 1.01 | 0.933 | 0.965 | 0.643 | 0.901 | 0.923 | 1.16 | 0.941 | 1.11 | 0.845 |
| NCI-H1648 | – | – | – | – | – | 0.934 | 0.875 | 0.876 | 0.728 | 0.739 | 1.1 | 0.788 | 1.03 | 0.824 | 0.993 | 0.688 | 0.993 | 0.691 | 1.17 | 0.879 |

— the supplement of paper PMC10307832
